Laboratory results from publication PMC7113753 (Antiviral Research, 2018).
Entries after “also recorded” stand apart in the source; their conditions may differ. Where two headings read alike, the source gives them in different places.

Key:
PEDV PL2^pro [1] = biological target: T1, PEDV PL2^pro (Porcine epidemic diarrhea virus, UniProt V5W8W2); assay: biochemical; assay type: biochemical
PEDV PL2^pro [2] = biological target: T1, PEDV PL2^pro; assay type: biochemical
human USP2 = settings: cited from earlier work

Sc1ncnc2nc[nH]c12 [6MP, 6-mercaptopurine]
IC50 (PEDV PL2^pro [1]): 58.1 ± 5.7 µM

Nc1nc2nc[nH]c2c(=S)[nH]1 [6TG, 6-thioguanine]
IC50 of 6TG fold lower than that of 6MP (PEDV PL2^pro [1]): 4.2 fold | pattern of inhibition (PEDV PL2^pro [2]): noncompetitive inhibitor; also recorded: noncompetitive pattern of inhibition | pattern of inhibition (human USP2): noncompetitive inhibitory effect

CCN(CC)C(=S)SSC(=S)N(CC)CC [Disulfiram]
IC50 (PEDV PL2^pro [1]): > 100 µM

O=C(O)CN(CCN(CC(=O)O)CC(=O)O)CC(=O)O [EDTA]
inhibition of DUB activity by EDTA (in words) (PEDV PL2^pro [1]): dose-dependent pattern

Cc1ccc(N)cc1C(=O)N[C@H](C)c1cccc2ccccc12 [GRL0617]
IC50 (PEDV PL2^pro [1]; read-out: IC50 (DUB activity), pH 6.5): > 100 µM

O=c1[nH]cnc2nc[nH]c12 [Hypoxanthine]
IC50 (PEDV PL2^pro [1]): > 200 µM | inhibitory activity (in words) (PEDV PL2^pro [1]): devoid of inhibitory activity

COc1c(C)c2c(c(O)c1C/C=C(\C)CCC(=O)O)C(=O)OC2 [Mycophenolic acid]
IC50 (PEDV PL2^pro [1]): > 200 µM

zinc ions
inhibition of DUB activity by external zinc ions (in words) (PEDV PL2^pro [1]): can be inhibited
